Test results published in patent US6162832A, “2-Phenoxyaniline derivatives” (Taisho Pharmaceutical Co., Inc., priority 1997, dated 2000).
Structures can show the parent of a compound that is named as a salt.

These compounds were tested against T1, Na^+ /Ca^2+ Exchange System (Canis lupus familiaris, UniProt P23685) (assay: Inhibitory Action on a Na^+ /Ca^2+ Exchange System using Cardiac Sarcolemmal Vesicles). Conditions: 10 s; 1 μM test drug; dog ventricular sarcolemmal vesicles; 45Ca uptake, 10 seconds; remaining activity vs vehicle-treated group; read-out: Na^+ /Ca^2+ exchange activity (% of control).
T1 construct: Sarcolemmal vesicles prepared from the removed dog ventricular muscles; from tissue; host or cells: dog ventricular muscle, sarcolemmal vesicles
Format: biochemical
Method: Inhibitory Action on a Na^+ /Ca^2+ Exchange System using Cardiac Sarcolemmal Vesicles Sarcolemmal vesicles prepared from the removed dog ventricular muscles according to the method described in the literature (L. R. Jones, Methods, Enzymol., 1988, 157, pp. 85) were used. A Na^+ /Ca^2+ exchange activity using the sarcolemmal vesicles was measured according to the method described in the literature (K. D. Philipson, et al., J. Biol. Chem., 1980, 255, pp. 6880). First, the sarcolemmal vesicles were suspended in a sodium-containing solution [160 mM sodium chloride, 20 mM Tris-hydrochloric acid (pH 7.4)] to make up to a protein concentration of 1.5 mg/ml, and allowed to stand for an hour to load Na^+ in the sarcolemmal vesicles. To 2.5 μl of the sarcolemmal vesicles was added 125 μl of a [^45 Ca]-calcium chloride solution [20 μM [^45 Ca]-calcium chloride, 160 mM potassium chloride and 20 mM Mops-Tris (pH 7.4)], and after 10 seconds, 900 μl of an ice-cooled lanthanum chloride solution [10 mM lanthanum chloride, 160 mM potassium chloride and 20 mM Mops-Tris (pH 7.4)] was added. The sarcolemmal vesicles were recovered on a nitrocellulose filter by suction filtration and washed three times with 900 μl of a lanthanum chloride solution. The […] of Ca^2+ uptake in the sarcolemmal vesicles was determined by measuring a ^45 Ca radioactivity by a scintillator. In addition, a Na^+ /Ca^2+ exchange activity-independent Ca^2+ uptake in the sarcolemmal vesicles was determined by carrying out the same procedure using a potassium-containing solution [160 mM potassium chloride, 20 mM Tris-hydrochloric acid (pH 7.4)] instead of the sodium-containing solution. The test compound was used as a dimethyl sulfoxide solution thereof, and its inhibitory effect was evaluated in comparison with the vehicle-treatedgroup.

remaining activity at 1 µM [%] | Compound
38 | Nc1ccccc1Oc1ccc(OCc2cccc(F)c2F)cc1 [Compound 3, 2-[4-(2,3-Difluorobenzyloxy)phenoxy]aniline hydrochloride]
27 | Nc1ccccc1Oc1ccc(OCc2cc(F)ccc2F)cc1 [Compound 4, 2-[4-(2,5-Difluorobenzyloxy)phenoxy]aniline hydrochloride]
43 | Nc1ccccc1Oc1ccc(OCc2c(F)cccc2F)cc1 [Compound 5, 2-[4-(2,6-Difluorobenzyloxy)phenoxy]aniline hydrochloride]
39 | CCOc1ccc(Oc2ccc(OCc3cc(F)ccc3F)cc2)c(N)c1 [Compound 6, 2-[4-(2.5-Difluorobenzyloxy)phenoxy]-5-ethoxyaniline hydrochloride]
33 | CCOc1ccc(Oc2ccc(OCc3c(F)cccc3F)cc2)c(N)c1 [Compound 7, 2-[4-(2.6-Difluorobenzyloxy)phenoxy]-5-ethoxyaniline hydrochloride]
47 | Nc1ccccc1Oc1ccc(OCc2ccc(F)cc2F)cc1 [Compound 8, 2-[4-(2,4-Difluorobenzyloxy)phenoxy]aniline hydrochloride]
45 | CCOc1ccc(Oc2ccc(OCc3cccc(F)c3F)cc2)c(N)c1 [Compound 10, 2-[4-(2,3-Difluorobenzyloxy)phenoxy]-5-ethoxyaniline hydrochloride]
